Measured values taken from patent US8853203B2, “Diazepinone derivatives” (Novartis AG, priority 2012, dated 2014).
pIC50: −log10 of the molar value.

Columns and labels:
human mGluR5a receptors = human mGluR5a receptors (Homo sapiens (Human), UniProt P41594); assay: inhibition of glutamate-induced elevation of intracellular calcium in L(tk-) cells expressing human mGluR5a; format: cell-based; conditions: glutamate-induced intracellular calcium elevation, L(tk-) cells expressing human mGluR5a; read-out: mGluR5 IC50
Chain of human mGluR5a receptors (P41594 other isoform, or with tags, fused parts or gaps): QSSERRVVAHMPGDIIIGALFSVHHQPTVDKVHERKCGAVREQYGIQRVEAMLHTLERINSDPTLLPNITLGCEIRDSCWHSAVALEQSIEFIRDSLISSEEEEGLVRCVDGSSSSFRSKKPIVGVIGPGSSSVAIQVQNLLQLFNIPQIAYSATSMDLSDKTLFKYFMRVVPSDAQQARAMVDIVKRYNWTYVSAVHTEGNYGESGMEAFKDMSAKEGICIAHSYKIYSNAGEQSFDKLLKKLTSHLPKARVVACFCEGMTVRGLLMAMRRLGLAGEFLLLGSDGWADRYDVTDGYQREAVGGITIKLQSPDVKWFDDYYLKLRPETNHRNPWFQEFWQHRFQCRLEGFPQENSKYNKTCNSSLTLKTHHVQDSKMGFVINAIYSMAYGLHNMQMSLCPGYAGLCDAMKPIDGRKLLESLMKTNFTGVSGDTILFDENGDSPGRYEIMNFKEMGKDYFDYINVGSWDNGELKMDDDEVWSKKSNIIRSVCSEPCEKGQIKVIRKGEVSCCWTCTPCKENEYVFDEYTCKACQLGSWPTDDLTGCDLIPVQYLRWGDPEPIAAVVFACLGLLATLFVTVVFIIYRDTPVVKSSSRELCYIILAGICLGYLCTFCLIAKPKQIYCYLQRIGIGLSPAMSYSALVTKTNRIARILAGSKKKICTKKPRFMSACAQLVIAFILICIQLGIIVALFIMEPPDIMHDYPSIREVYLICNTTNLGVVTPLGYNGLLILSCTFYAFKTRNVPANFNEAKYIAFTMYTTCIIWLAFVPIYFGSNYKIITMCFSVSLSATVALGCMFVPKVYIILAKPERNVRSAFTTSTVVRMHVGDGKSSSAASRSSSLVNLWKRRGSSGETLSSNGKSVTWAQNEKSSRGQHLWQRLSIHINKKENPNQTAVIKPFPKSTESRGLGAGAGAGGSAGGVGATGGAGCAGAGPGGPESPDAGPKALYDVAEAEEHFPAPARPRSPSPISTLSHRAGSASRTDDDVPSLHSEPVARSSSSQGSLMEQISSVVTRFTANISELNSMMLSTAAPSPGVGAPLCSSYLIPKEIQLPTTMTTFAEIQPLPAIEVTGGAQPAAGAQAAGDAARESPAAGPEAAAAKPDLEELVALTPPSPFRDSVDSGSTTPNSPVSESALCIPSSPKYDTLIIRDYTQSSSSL
Summary of the method: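 Compounds tested for inhibition of the glutamate-induced rise in intracellular calcium concentration in L(tk-) cells stably expressing human mGluR5a.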

human mGluR1 = human mGluR1 (Homo sapiens (Human), UniProt Q13255); assay: mGluR1 antagonism, L-glutamate induced intracellular calcium increase (FLIPR) in CHO cells stably expressing human mGluR1; format: cell-based; conditions: L-glutamate induced intracellular calcium, CHO cells expressing human mGluR1, FLIPR
Chain of human mGluR1 (Q13255 19-1194): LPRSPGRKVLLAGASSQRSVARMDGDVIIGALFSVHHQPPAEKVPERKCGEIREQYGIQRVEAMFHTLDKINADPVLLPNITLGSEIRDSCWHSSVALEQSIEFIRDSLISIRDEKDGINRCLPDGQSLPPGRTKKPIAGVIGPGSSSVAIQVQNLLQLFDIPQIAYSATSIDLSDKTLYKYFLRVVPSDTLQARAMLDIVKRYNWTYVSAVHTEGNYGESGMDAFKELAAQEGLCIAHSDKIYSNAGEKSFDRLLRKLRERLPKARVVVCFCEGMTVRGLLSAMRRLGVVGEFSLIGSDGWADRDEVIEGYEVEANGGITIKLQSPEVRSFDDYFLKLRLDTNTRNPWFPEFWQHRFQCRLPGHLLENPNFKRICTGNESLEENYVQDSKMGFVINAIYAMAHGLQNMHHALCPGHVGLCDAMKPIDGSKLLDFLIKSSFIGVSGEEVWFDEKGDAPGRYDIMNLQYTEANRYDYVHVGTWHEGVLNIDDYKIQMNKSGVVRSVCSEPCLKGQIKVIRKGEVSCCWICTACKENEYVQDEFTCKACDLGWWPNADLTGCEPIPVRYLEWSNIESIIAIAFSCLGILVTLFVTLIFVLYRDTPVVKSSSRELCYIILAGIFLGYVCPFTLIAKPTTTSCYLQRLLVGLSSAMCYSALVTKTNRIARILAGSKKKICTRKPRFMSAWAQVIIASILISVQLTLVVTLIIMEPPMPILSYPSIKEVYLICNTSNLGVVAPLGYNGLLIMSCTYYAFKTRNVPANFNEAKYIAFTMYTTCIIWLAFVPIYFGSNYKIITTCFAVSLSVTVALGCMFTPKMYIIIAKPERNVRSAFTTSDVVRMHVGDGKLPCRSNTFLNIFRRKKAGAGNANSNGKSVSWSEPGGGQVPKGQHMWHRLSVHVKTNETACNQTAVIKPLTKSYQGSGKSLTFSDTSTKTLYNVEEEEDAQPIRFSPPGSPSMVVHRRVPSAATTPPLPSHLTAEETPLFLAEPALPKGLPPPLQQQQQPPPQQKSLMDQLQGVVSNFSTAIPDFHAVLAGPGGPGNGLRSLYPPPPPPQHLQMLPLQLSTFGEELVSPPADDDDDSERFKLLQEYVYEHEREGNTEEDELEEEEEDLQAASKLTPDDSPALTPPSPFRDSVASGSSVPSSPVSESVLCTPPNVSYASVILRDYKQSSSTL

Row | SMILES | pIC50 (human mGluR5a receptors) | pIC50 (human mGluR1)
1 | COCc1cn(C2=NCC(=O)N3CCc4c(cccc4C(C)(C)C)C3=C2)cn1 [Example 125, 9-(tert-butyl)-2-(4-(methoxymethyl)-1H-imidazol-1-yl)-7,8-dihydro-[1,4]diazepino[7,1-a]isoquinolin-5(4H)-one] | 6.74 | < 5.70
2 | O=C1CN=C(n2cnc(COC(F)(F)F)c2)C=C2c3cccc(C4CC4)c3CCN12 [Example 131, 9-cyclopropyl-2-(4-((trifluoromethoxy)methyl)-1H-imidazol-1-yl)-7,8-dihydro-[1,4]diazepino[7,1-a]isoquinolin-5(4H)-one] | 7.34 | < 5.70
3 | COC(=O)c1cccc2c1CCN1C(=O)CN=C(n3cnc(C4CC4)c3)C=C21 [Example 132, methyl 2-(4-cyclopropyl-1H-imidazol-1-yl)-5-oxo-4,5,7,8-tetrahydro-[1,4]diazepino[7,1-a]isoquinoline-9-carboxylate] | 7.21 | 5.68
4 | O=C1CN=C(n2cnc(C3CC3)n2)C=C2c3cccc(-c4ccc(F)cn4)c3CCN12 [Example 133, 2-(3-cyclopropyl-1H-1,2,4-triazol-1-yl)-9-(5-fluoropyridin-2-yl)-7,8-dihydro-[1,4]diazepino[7,1-a]isoquinolin-5(4H)-one] | 6.67 | < 5.00
5 | O=C1CN=C(n2cnc(C3CC3)n2)C=C2c3cccc(-c4cccc(F)n4)c3CCN12 [Example 134, 2-(3-cyclopropyl-1H-1,2,4-triazol-1-yl)-9-(6-fluoropyridin-2-yl)-7,8-dihydro-[1,4]diazepino[7,1-a]isoquinolin-5(4H)-one] | 6.70 | < 5.00
6 | O=C1CN=C(n2cnc(C3CC3)n2)C=C2c3cccc(-c4cc(F)ccn4)c3CCN12 [Example 135, 2-(3-cyclopropyl-1H-1,2,4-triazol-1-yl)-9-(4-fluoropyridin-2-yl)-7,8-dihydro-[1,4]diazepino[7,1-a]isoquinolin-5(4H)-one] | 6.08 | < 5.00
7 | Cc1ncn(C2=NCC(=O)N3CCc4c(cccc4-c4cnc(F)cn4)C3=C2)n1 [Example 137, 9-(5-fluoropyrazin-2-yl)-2-(3-methyl-1H-1,2,4-triazol-1-yl)-7,8-dihydro-[1,4]diazepino[7,1-a]isoquinolin-5(4H)-one] | 7.32 | < 5.00
8 | O=C1CN=C(n2cnc(C3CC3)c2)C=C2c3cccc(-n4nccn4)c3CCN12 [Example 138, 2-(4-cyclopropyl-1H-imidazol-1-yl)-9-(2H-1,2,3-triazol-2-yl)-7,8-dihydro-[1,4]diazepino[7,1-a]isoquinolin-5(4H)-one] | 7.10 | 5.83
9 | O=C1CN=C(n2cnc(C3CC3)c2)C=C2c3cccc(-c4cnc(F)cn4)c3CCN12 [Example 139, 2-(4-cyclopropyl-1H-imidazol-1-yl)-9-(5-fluoropyrazin-2-yl)-7,8-dihydro-[1,4]diazepino[7,1-a]isoquinolin-5(4H)-one] | 7.77 | 5.96
10 | O=C1CN=C(n2cnc(C3CC3)c2)C=C2c3ccc(F)c(-c4cnc(F)nc4)c3CCN12 [Example 140] | 7.03 | < 5.00
11 | COCc1cn(C2=NCC(=O)N3CCc4c(OC(C)C)cccc4C3=C2)cn1 [Example 142, 9-isopropoxy-2-(4-(methoxymethyl)-1H-imidazol-1-yl)-7,8-dihydro-[1,4]diazepino[7,1-a]isoquinolin-5(4H)-one] | 6.56 | < 5.70
12 | COCc1cn(C2=NCC(=O)N3CCc4c(C5CC5)cccc4C3C2)cn1 (stereo not drawn) [Example 143, 9-cyclopropyl-2-(4-(methoxymethyl)-1H-imidazol-1-yl)-1,7,8,12b-tetrahydro-[1,4]diazepino[7,1-a]isoquinolin-5(4H)-one] | 6.55 | < 5.00

The remaining lines, values ahead:

Row | pIC50 (human mGluR5a receptors) | pIC50 (human mGluR1) | SMILES
13 | 8.15 | 5.92 | O=C1CN=C(n2cnc(C3(O)CC3)c2)C=C2c3cccc(C4CC4)c3CCN12 [Example 127, 9-cyclopropyl-2-(4-(1-hydroxycyclopropyl)-1H-imidazol-1-yl)-7,8-dihydro-[1,4]diazepino[7,1-a]isoquinolin-5(4H)-one]
14 | 9.00 | 7.39 | O=C1CN=C(n2cnc(CCO)c2)C=C2c3cccc(C4CC4)c3CCN12 [Example 128, 9-cyclopropyl-2-(4-(2-hydroxyethyl)-1H-imidazol-1-yl)-7,8-dihydro-[1,4]diazepino[7,1-a]isoquinolin-5(4H)-one]
15 | 8.70 | 5.82 | CC(O)c1cn(C2=NCC(=O)N3CCc4c(cccc4C4CC4)C3=C2)cn1 (stereo not drawn) [Example 129, 9-cyclopropyl-2-(4-(1-hydroxyethyl)-1H-imidazol-1-yl)-7,8-dihydro-[1,4]diazepino[7,1-a]isoquinolin-5(4H)-one]
16 | 7.57 | 5.48 | O=C1CN=C(n2cnc(C(O)C3CC3)c2)C=C2c3cccc(C4CC4)c3CCN12 (stereo not drawn) [Example 130, 9-cyclopropyl-2-(4-(cyclopropyl(hydroxy)methyl)-1H-imidazol-1-yl)-7,8-dihydro-[1,4]diazepino[7,1-a]isoquinolin-5(4H)-one]
17 | 7.72 | < 5.70 | O=C1CN=C(n2cnc(C3CC3)n2)C=C2c3cccc(-c4cnc(F)cn4)c3CCN12 [Example 136, 2-(3-cyclopropyl-1H-1,2,4-triazol-1-yl)-9-(5-fluoropyrazin-2-yl)-7,8-dihydro-[1,4]diazepino[7,1-a]isoquinolin-5(4H)-one]
18 | 7.59 | 6.40 | O=C1CN=C(n2cnc(C3CC3)c2)C=C2c3cccc(-c4cncc(F)n4)c3CCN12 [Example 141, 2-(4-cyclopropyl-1H-imidazol-1-yl)-9-(6-fluoropyrazin-2-yl)-7,8-dihydro-[1,4]diazepino[7,1-a]isoquinolin-5(4H)-one]
